The record followed here is ChEMBL document CHEMBL5226303, “GPR120/FFAR4 Pharmacology: Focus on Agonists in Type 2 Diabetes Mellitus Drug Discovery” (J Med Chem, 2021).

The target of experiment [1] is T1, Free fatty acid receptor 4 (Homo sapiens, UniProt Q5NUL3).
T1 sequence (Q5NUL3 whole entry): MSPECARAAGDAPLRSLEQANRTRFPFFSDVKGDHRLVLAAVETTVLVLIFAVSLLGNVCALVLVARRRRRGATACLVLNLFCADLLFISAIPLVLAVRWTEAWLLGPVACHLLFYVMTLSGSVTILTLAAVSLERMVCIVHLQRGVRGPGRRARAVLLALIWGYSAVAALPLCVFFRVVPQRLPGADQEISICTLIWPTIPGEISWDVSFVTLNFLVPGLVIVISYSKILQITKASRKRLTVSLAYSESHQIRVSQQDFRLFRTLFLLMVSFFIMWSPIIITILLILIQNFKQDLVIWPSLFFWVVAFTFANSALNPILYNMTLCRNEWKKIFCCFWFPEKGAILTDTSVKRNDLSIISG
The experiment can be described thus: Agonist activity at human GPR120 expressed in HEK293 cells by beta-arrestin assay. Format: cell-based.

The target of experiment [2] is T1, Free fatty acid receptor 4. The experiment can be described thus: Agonist activity at human GPR120 expressed in HEK293 cells assessed as calcium accumulation. Format: cell-based.
For experiment [3], the target named is T1, Free fatty acid receptor 4. Briefly: Agonist activity at human GPR120 expressed in CHO-K1 cells by beta-arrestin assay. Format: cell-based.
The test system of a further experiment is DU-145. The experiment can be described thus: Antiproliferative activity against LPA-induced human DU-145 cells. Format: functional, cell-based.
Experiment [4] can be described thus: Agonist activity at FFA receptor (unknown origin). Also on record: species or system Homo sapiens.

For `OCCCc1c(F)cc(OCc2c(-c3ccc(Cl)cc3)csc2C(F)(F)F)cc1F`, the values for the EC50 in experiment [1] and in experiment [2] were 125 nM and 165 nM, respectively.

In the case of `C#Cc1cc(Oc2cccnc2)cc(N2Cc3ccccc3S2(=O)=O)c1`, it took 5.2 nM to reach a half-maximal effect in experiment [3] (EC50).

In the case of `CC/C=C\C/C=C\C/C=C\C/C=C\C/C=C\C/C=C\CCC(=O)O` [DOCONEXENT], in the experiment with DU-145, the IC50 is 73 nM.

Turning to `CC(C)=CCC/C(C)=C/CC/C(C)=C/Cc1c(O)cc(C)c(C(=O)O)c1O` [GRIFOLIC ACID], in the experiment with DU-145, the IC50 came out at 5700 nM.

Regarding `CCCCC/C=C\C/C=C\CCCCCCCC(=O)O` [LINOLEIC ACID], the pEC50 in experiment [4] is reported as 5.16.

As usually defined, the EC50 is the midpoint of the concentration-response curve. What is called IC50 is the midpoint of a concentration-inhibition curve. Read a low IC50 as greater potency in that assay. Broadly, the pEC50 is −log10 of the EC50, conventionally taken in molar units. High values mean a small EC50, low ones a large EC50.
